Measured values reported in ChEMBL document CHEMBL1143526, “Benzothiazolium compounds: novel classes of inhibitors that suppress the nitric oxide production in RAW264.7 cells stimulated by LPS/IFNgamma” (Bioorg Med Chem Lett, 2005).

Tests used:
RAW264.7 [1] = experiment: Suppression of nitric oxide production in the LPS/IFN gamma stimulated RAW264.7 cells; format: functional, cell-based; conditions: Mus musculus
RAW264.7 [2] = experiment: Inhibition of LPS/IFN gamma stimulated RAW264.7 cells determined by MTS assay; format: functional; conditions: Mus musculus

Row | SMILES | IC50 (RAW264.7 [1]) [µM] | GI50 (RAW264.7 [2]) [µM]
1 | CC[n+]1c(/C=C2\C=Cc3ccc(C)cc3N2CCCS(=O)(=O)O)sc2ccccc21 | 27.2 | > 10
2 | CC[n+]1c(/C=C2\Sc3ccccc3N2CCC(=O)O)sc2ccccc21 | 11.5 | > 10
3 | CC[n+]1c(/C=C(\C)Nc2ccccc2)sc2ccccc21 | 44.8 | > 10
4 | CC[n+]1c(/C=C(\C)NCc2ccccc2)sc2ccccc21 | 7.61 | > 10
5 | CCC(/C=C1\Sc2ccccc2N1CCCS(=O)(=O)O)=C\c1sc2ccccc2[n+]1CC | 5.78 | > 10
6 | CC[n+]1c(/C=C/c2ccc(N(C)C)cc2)sc2cc(NC(C)=O)ccc21 | 3.31 | > 10
7 | CCN1/C(=C/C(N)=C/c2sc3ccccc3[n+]2CC)Sc2ccccc21 | 0.847 | > 10
8 | CCN1C(=Cc2sc3ccccc3[n+]2C)C=Cc2cccc(C)c21 | 0.318 | > 10
9 | CC[n+]1c(/C=C/c2ccc(N(C)C)cc2)sc2cc(C)ccc21 | 2.27 | > 10
10 | CCC(/C=C1\Sc2ccc(Cl)cc2N1CC)=C\c1sc2ccc(Cl)cc2[n+]1CC | 0.741 | 9
11 | CCN1C(=Cc2sc3ccccc3[n+]2C)C=Cc2ccc(C)cc21 | 0.444 | > 10
12 | CCN1/C(=C/C(C)=C/c2sc3ccccc3[n+]2CC)Sc2ccccc21 | 0.198 | > 10
13 | CCC(/C=C1\Sc2ccccc2N1CC)=C\c1sc2ccccc2[n+]1CC | 0.062 | 5.5
14 | CC/C(=C\c1sc2ccc(OC)cc2[n+]1CCCS(=O)(=O)[O-])SC | 66.1 | > 10
15 | NC(=C\c1sc2ccccc2[n+]1CCCS(=O)(=O)O)/C=C1\Sc2ccccc2N1CCCS(=O)(=O)O | 51.9 | > 10
16 | CN1/C(=C/c2sc3ccccc3[n+]2C)Sc2ccccc21 | 4.69 | > 10
17 | CC[n+]1c(/C=C(/C)SC)sc2ccc(OC)cc21 | 18.4 | > 10
18 | CC/C(=C/c1sc2ccc(OC)cc2[n+]1CC)SC | 3.64 | > 10
19 | CCN1/C(=C/c2sc3ccccc3[n+]2CC)C=Cc2ccc(C)cc21 | 0.183 | > 10
20 | CCCC[n+]1c(C=C2C=Cc3ccccc3N2CC)sc2ccccc21 | 0.215 | 5.5
21 | CCN1/C(=C/C(=C/c2sc3ccccc3[n+]2CC)OC)Sc2ccccc21 | 0.461 | > 10
22 | CN(C)c1ccc(/C=C/c2sc3ccc4ccccc4c3[n+]2C)cc1 | 2.16 | > 10
23 | CC[n+]1c(/C=C2\C=Cc3ccc(C)cc3N2C)sc2ccccc21 | 0.253 | > 10
24 | CC[n+]1c(/C=C2\C=Cc3cc(C)ccc3N2C)sc2ccccc21 | 0.178 | > 10
25 | CCC(/C=C1\Sc2ccc(Cl)cc2N1C)=C\c1sc2ccc(Cl)cc2[n+]1C | 0.402 | 7.9

Row | SMILES | IC50 (RAW264.7 [1]) [µM] | GI50 (RAW264.7 [2]) [µM]
26 | CCN1/C(=C/C(=C/c2sc3ccccc3[n+]2CC)SC)Sc2ccccc21 | 0.637 | > 10
27 | CCN1/C(=C/c2sc3ccccc3[n+]2CC)Sc2ccccc21 | 0.403 | > 10
28 | CCC(/C=C1\Sc2ccccc2N1C)=C\c1sc2ccccc2[n+]1C | 0.055 | 5.5
29 | CCN1C(=Cc2sc3ccc(OC)cc3[n+]2CC)C=Cc2ccccc21 | 1.06 | 9.3
30 | CCN1/C(=C/c2sc3cc(OC)c(OC)cc3[n+]2CC)C=Cc2ccccc21 | 0.684 | > 10
31 | CCN1/C(=C/c2sc3ccc(Br)cc3[n+]2CC)C=Cc2ccccc21 | 0.241 | > 10
32 | CN1/C(=C/C(=C/c2sc3ccccc3[n+]2C)C2CCC2)Sc2ccccc21 | 0.662 | 6.5
33 | CC[n+]1c(/C=C(/C)SC)sc2ccccc21 | 24.2 | > 10
34 | COc1ccc2sc(/C=C(\C)SC)[n+](CCCS(=O)(=O)[O-])c2c1 | 69.5 | > 10
35 | CC[n+]1c(C=C2Sc3ccccc3N2CCO)sc2ccccc21 | 10.7 | > 10
36 | CN(C)c1ccc(/C=C/c2sc3ccccc3[n+]2C)cc1 | 4.8 | > 10
37 | CC[n+]1c(/C=C/c2ccc(N(C)C)cc2)sc2ccccc21 | 4.94 | > 10
38 | CCN1/C(=C/c2sc3ccc(I)cc3[n+]2CC)C=Cc2ccccc21 | 0.259 | > 10
39 | CCN1/C(=C/c2sc3ccccc3[n+]2CC)C=Cc2ccccc21 | 0.244 | > 10
40 | CC[n+]1c(/C=C/c2ccc(N(C)C)cc2)sc2ccc(C(=O)OC)cc21 | 10.8 | > 10
41 | CC(/C=C1\Sc2ccccc2N1CCO)=C\c1sc2ccccc2[n+]1CCO | 20.2 | > 10
42 | CCN1/C(=C/c2sc3cc(C)c(C)cc3[n+]2CC)C=Cc2ccccc21 | 0.258 | 5.8
43 | O=S(=O)(O)CCCN1/C(=C/c2sc3ccccc3[n+]2CCCS(=O)(=O)O)C=Cc2ccccc21 | 64.6 | > 10
44 | CCN1/C(=C/c2sc3ccccc3[n+]2CC)C=Cc2cc(NC(C)=O)ccc21 | 13.3 | > 10
45 | CCCN1/C(=C/c2sc3ccccc3[n+]2CC)C=Cc2ccccc21 | 0.288 | > 10
46 | CCN1/C(=C/c2sc3ccccc3[n+]2C)C=Cc2ccccc21 | 0.216 | > 10
47 | CC[n+]1c(/C=C/c2ccc(N(C)C)cc2)sc2ccc(C)cc21 | 2.33 | > 10
48 | CCN1/C(=C/c2sc3ccc(C)cc3[n+]2CC)C=Cc2ccccc21 | 0.295 | > 10
49 | CC/C(=C\c1sc2ccc(OC)cc2[n+]1CC)SC | 3.99 | > 10
